Source: patent US20250277785A1, “MICROFLUIDIC DEVICES FOR EVALUATING FIBROSIS IN MATERIAL IMPLANTATION AND CANCER” (THE UNITED STATES OF AMERICA AS REPRESENTED BY THE …, priority 2022, published 2025)

Columns and labels:
RAW264.7 macrophages = test: Griess assay of nitrite production in media of cultured macrophages; assay type: cell-based, mouse; details: LPS stimulation of macrophages, 2D culture
Method: (§1) L929 mouse fibroblasts and RAW264.7 mouse macrophages were fluorescently labelled with red and green […]® (Thermo Fisher Scientific) dyes respectively. Extensive studies were conducted to optimize cell seeding density, culture times, and biomaterial implantation. Cells were co-cultured two-dimensionally or within microfluidic devices described in Example 1, after which cancer spheroids or alginate-based biomaterials were implanted within the two-dimensional cultures and within the microfluidic devices. Immunostaining, fluorescence microscopy, Griess assays, and histological analysis were used to evaluate immune cell activation and fibrosis formation in response to the spheroids and implants. Griess Assays were performed on media collected from cultured cells. […] Co-culture of RAW264.7 and L929 cells were visualized with […]® dyes. […] F-actin visualization for RAW264.7 cells treated with LPS was performed. […] Co-culture of L929 and RAW264.7 cells was performed in the microfluidic device. L929 cells were cultured in 3D within the Matrigel channel, while macrophages were introduced in 2D from an adjacent channel. After 24 hours of co-culture, the cells were primarily retained within their respective channels.

RAW264.7 cells = test: F-actin visualization of macrophage morphology; assay type: cell-based, mouse; details: increasing concentrations of LPS
Method: as §1

[1] = system: primary mouse skin fibroblasts; test: Scar-in-a-jar immunostaining, collagen deposition by fibroblasts in 2D; assay type: cell-based; details: media containing L-ascorbic acid, FICOLL and TGF-β1
Method: (§2) Inducing collagen deposition by fibroblasts in a two-dimensional model was studied. To determine whether L929 fibroblasts would deposit collagen in response to stimuli, well plate experiments were conducted following a protocol described in Good et al., “A High Content, Phenotypic ‘Scar-In-A-Jar’ Assay for Rapid Quantification of Collagen Fibrillogenesis Using Disease-Derived Pulmonary Fibroblasts,” BMC Biomedical Engineering, 1:14, 1-10 (2019), which is incorporated by reference herein in its entirety. Immunostaining experiments were carried out on L929 cells and primary mouse skin fibroblasts exposed to media containing L-ascorbic acid, FICOLL®, and TGF-β1. […] These findings indicate the relevance of and effects of cell type and L-ascorbic acid type on in vitro extracellular matrix deposition.

L929 cells = test: as above; assay type: cell-based, mouse; details: media containing L-ascorbic acid, FICOLL and TGF-β1
Method: as §2

WI-38 human lung cells = test: Picrosirius red staining of decellularized extracellular matrix; assay type: cell-based; details: Permanox plastic 4-chamber slides, 250,000 cells/chamber, with vs without L-ascorbic acid
Method: One method that can be used for visualization and quantification of collagen deposition in the microfluidic device is picrosirius red staining. […] Cells were grown in chambers with or without a fibronectin coating and with or without L-asorbic acid. […] In the absence of a fibronectin coating, no visible collagen deposition remained after 14-15 minutes of decellularization. […] Cells appear to deposit collagen fibers that are retained, even in the absence of a fibronectin coating, with a short decellularization time of five minutes. […]

[2] = system: L929 cells and primary mouse skin fibroblasts; test: Scar-in-a-jar immunostaining, effect of L-ascorbic acid type; assay type: cell-based; details: cell type not specified for this statement
Method: as §2

## lipopolysaccharide [LPS]
RAW264.7 macrophages
  macrophage activation, as indicated by nitrite production: led to macrophage activation
RAW264.7 cells
  morphological changes (F-actin visualization): Morphological changes were observed

## TGF-β1: transforming growth factor beta 1, stimulus for collagen deposition
[1]
  Collagen I deposition in response to TGF-β1 treatment: Some increases
  α-SMA expression in response to TGF-β1 treatment: Some increases
L929 cells
  Collagen I deposition in response to TGF-β1 treatment: did not have increased Collagen I deposition
  α-SMA expression: no α-SMA expression

## O=C1O[C@H]([C@@H](O)CO)C(O)=C1O [L-ascorbic acid]
WI-38 human lung cells
  collagen deposition (picrosirius red): increase in collagen deposition
[2]
  effect of the type of L-ascorbic acid on Collagen I deposition: had some effects
